Test results reported in patent US12168659B2, “Thioamide derivative and preparation method and application thereof” (Yunbaiyao Zhengwu Science and Technology (Shanghai) Co., …, priority 2022, dated 2024).
pIC50: −log10 of the molar value.

Legend:
[1] = test system: human colon cancer cells (HCT-15); assay: Anti-proliferative activity, CCK-8 assay, HCT-15; assay type: cell-based; conditions: 72 h incubation
Description: (§1) Experimental procedure: Sample solutions with a concentration of 20 μM were prepared and serially diluted 5-fold downwards to obtain 10 concentrations: 20000 nM, 4000 nM, 800 nM, 160 nM, 32 nM, 6.4 nM, 1.28 nM, 0.256 nM, 0.0512 nM and 0.01024 nM. The sample solutions were incubated with the above cell lines for 72 h. Then 10 μL of a CCK-8 solution was then added to each well, followed by a further 2 hours incubation. An optical density (OD) value was measured at 450 nm using a fully automated microplate reader. Data were processed using GraphPad Prism 7 to calculate IC50.

MEK1 = MEK1 (Homo sapiens, UniProt Q02750); assay: Raf-MEK-ERK cascade kinase assay using recombinant protein (MEK1); assay type: biochemical; conditions: 10 μM ATP, active B-Raf (V599E), 30° C. 30 minutes
Description: (§2) Experimental purpose: The inhibitory activity of the compounds on MEK1 and MEK2 was measured by performing a Raf-MEK-ERK cascade kinase assay using recombinant protein.
(§3) Experimental method: 2 mg of dephosphorylated myelin basic protein (MBP) was dispersed in a 0.2 M sodium carbonate aqueous solution (pH=9.4). The mixed solution was then coated onto an enzyme-linked immunosorbent assay (ELISA) plate (U-shaped bottom plate) and left to stand overnight at 4° C. […] Compound solutions with serial concentrations were tested in triplicate wells. A mixture of 2 ng of inactivated MEK1 (or 4 ng of MEK2) and 50 ng of inactivated ERK2 was dissolved in a buffer solution (20 mM MOPS [pH=7.4], 0.1% 2-mercaptoethanol, 0.1% BSA) at room temperature, and then treated with the above serial solutions on a flat plate. The plate was covered with 1% bovine serum albumin (BSA) and pre-incubated for 10 minutes. […] After incubation at 30° C. for 30 minutes, phosphorylation of MBP by ERK was detected using peroxidase-labeled anti-phosphorylated MBP antibodies. Data curves were plotted and half maximal inhibitory concentration (IC50) values were calculated using XLFit.

[2] = test system: human prostate cancer cells (PC-3); assay: Anti-proliferative activity, CCK-8 assay, PC-3; assay type: cell-based; conditions: 72 h incubation
Description: as §1

[3] = test system: human malignant melanoma cells (A375); assay: Anti-proliferative activity, CCK-8 assay, A375; assay type: cell-based; conditions: A-375, 72 h incubation
Description: as §1

MEK2 = MEK2 (Homo sapiens, UniProt P36507); assay: Raf-MEK-ERK cascade kinase assay using recombinant protein (MEK2); assay type: biochemical; conditions: 10 μM ATP, active B-Raf (V599E), 30° C. 30 minutes
Description: as §2, §3

[4] = test system: human non-small cell lung cancer cells (A549); assay: Anti-proliferative activity, CCK-8 assay, A549; assay type: cell-based; conditions: 72 h incubation
Description: as §1

[5] = test system: human colon cancer cells (HCT116); assay: Anti-proliferative activity, CCK-8 assay, HCT116; assay type: cell-based; conditions: HCT-116, 72 h incubation
Description: as §1

[6] = test system: human HCT116 subcutaneous xenograft tumors; assay: In vivo anti-tumor assay, subcutaneous xenograft model; design: species or system BALB/c nude mouse; conditions: 3 mg/kg P.O. QD × 30 days; for Tumor growth inhibition, tumor volume change (FIG. 2): compared to the Trametinib group
Description: Experimental purpose: To evaluate the in vivo efficacy of the compounds in a subcutaneous xenograft model of human cancer cells in a Bagg's albino (BALB/c) nude mouse.
The tumor suppressive efficacy of the compounds was quantified by TGI (%) or relative tumor proliferation rate T/C (%). TGI (%) reflected the tumor growth inhibition rate. TGI(%) was calculated using the following equation: TGI(%)=[1−(mean tumor volume at the end of treatment in a treatment group-mean tumor volume at the start of treatment in the treatment group)/(mean tumor volume at the end of treatment in the solvent control group-mean tumor volume at the start of treatment in the solvent control group)]×100%.
T/C(%) was calculated using the following equation: T/C (%)=TRTV/CRTV×100%, where TRTV was an RTV of the treatment group, and CRTV was an RTV of the negative control group. The RTV was calculated from the results of tumor size measurements according to the following equation: RTV=Vt/V0, where V0 was a mean tumor volume measured on the day of first administration (i.e., day 0), Vt was a mean tumor volume measured on the day indicated, and TRTV and CRTV were obtained from data on the same day.

[7] = Body weight change of experimental mice in the xenograft study; conditions: 3 mg/kg gavage, 30 days
Description: Experimental procedure: The study evaluated the inhibitory effect of compounds administered by gavage against human HCT116 subcutaneous xenograft tumors in the BALB/c nude mouse model by measuring tumor size and calculating tumor volume (TV), relative tumor volume (RTV), relative tumor proliferation rate (T/C), and anti-tumor efficacy (TGI).

MEK1, sequence (Q02750 whole entry): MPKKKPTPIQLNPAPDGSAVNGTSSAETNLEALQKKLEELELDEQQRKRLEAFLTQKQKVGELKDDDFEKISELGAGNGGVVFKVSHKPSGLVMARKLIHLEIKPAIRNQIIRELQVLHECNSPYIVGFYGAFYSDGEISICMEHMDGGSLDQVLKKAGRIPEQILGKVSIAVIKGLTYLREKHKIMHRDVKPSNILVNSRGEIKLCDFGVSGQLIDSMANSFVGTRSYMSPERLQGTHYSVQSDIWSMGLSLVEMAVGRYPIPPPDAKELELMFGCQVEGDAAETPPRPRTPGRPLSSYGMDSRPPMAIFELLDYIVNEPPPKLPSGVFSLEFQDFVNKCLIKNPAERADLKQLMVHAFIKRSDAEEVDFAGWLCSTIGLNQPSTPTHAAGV
MEK2, sequence (P36507 whole entry): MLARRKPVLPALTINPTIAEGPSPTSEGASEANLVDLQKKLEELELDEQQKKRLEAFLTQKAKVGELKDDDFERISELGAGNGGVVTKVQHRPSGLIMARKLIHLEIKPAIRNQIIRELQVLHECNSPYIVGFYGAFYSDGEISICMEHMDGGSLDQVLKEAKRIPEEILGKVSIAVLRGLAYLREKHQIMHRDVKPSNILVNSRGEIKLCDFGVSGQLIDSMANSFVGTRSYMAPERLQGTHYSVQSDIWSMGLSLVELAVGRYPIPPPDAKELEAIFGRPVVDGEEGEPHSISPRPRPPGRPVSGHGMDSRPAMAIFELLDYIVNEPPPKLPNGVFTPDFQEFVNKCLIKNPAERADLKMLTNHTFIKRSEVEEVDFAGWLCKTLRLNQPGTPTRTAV

SMILES	pIC50 [1]	pIC50 (MEK1)	pIC50 [2]	pIC50 [3]	pIC50 (MEK2)	pIC50 [4]	pIC50 [5]	T/C (relative tumor proliferation rate) [6]	TGI (tumor growth inhibition rate) [6]	Tumor volume (Day 30) [6]	Tumor growth inhibition, tumor volume change (FIG. 2) [6]	Weight loss at the end of the experiment / toxicity (FIG. 1) [7]
CC(=S)Nc1cccc(-n2c(=O)n(C)c(=O)c3c(Nc4ccc(I)cc4F)n(C)c(=O)c(C)c32)c1 [Compound 1]	7.81	8.92	8.62	8.46	8.96	8.59	8.54	–	–	–	–	–
CC(=S)Nc1cccc(-n2c(=O)n(C3CC3)c(=O)c3c(Nc4ccc(I)cc4F)n(C)c(=O)c(C)c32)c1 [Compound 2]	7.90	8.74	8.44	8.51	8.67	8.51	8.59	9.62%	98.72%	165 ± 21 mm^3	better inhibitory effects	toxicity of Trametinib was higher than that of compounds 2, 8 and 12
CC(=S)Nc1cccc(-n2c(=O)n(C(C)C)c(=O)c3c(Nc4ccc(I)cc4F)n(C)c(=O)c(C)c32)c1 [Compound 3]	7.83	9.05	8.72	8.60	9.01	8.82	8.68	–	–	–	–	–
CC(=S)Nc1cccc(-n2c(=O)n(C3CCCC3)c(=O)c3c(Nc4ccc(I)cc4F)n(C)c(=O)c(C)c32)c1 [Compound 4]	8.01	8.87	8.85	8.41	8.98	8.62	8.80	–	–	–	–	–
CCC(=S)Nc1cccc(-n2c(=O)n(C3CC3)c(=O)c3c(Nc4ccc(I)cc4F)n(C)c(=O)c(C)c32)c1 [Compound 5]	7.70	–	8.48	8.59	8.92	8.44	8.42	–	–	–	–	–
Cc1c(=O)n(C)c(Nc2ccc(I)cc2F)c2c(=O)n(C3CC3)c(=O)n(-c3cccc(NC(=S)C4CC4)c3)c12 [Compound 6]	7.86	8.73	8.55	8.54	8.91	8.41	8.80	–	–	–	–	–
Cc1c(=O)n(C)c(Nc2ccc(I)cc2F)c2c(=O)n(C3CC3)c(=O)n(-c3cccc(NC(=S)C(C)C)c3)c12 [Compound 7]	7.62	9.02	8.68	8.37	9.00	8.55	8.57	–	–	–	–	–
Cc1c(=O)n(C)c(Nc2ccc(I)cc2F)c2c(=O)n(C3CC3)c(=O)n(-c3cccc(NC(=S)CO)c3)c12 [Compound 8]	7.59	8.80	8.62	8.33	8.68	8.24	8.38	8.17%	100.32%	140 ± 26 mm^3	better inhibitory effects	toxicity of Trametinib was higher than that of compounds 2, 8 and 12
CC(=S)Nc1ccc(F)c(-n2c(=O)n(C3CC3)c(=O)c3c(Nc4ccc(I)cc4F)n(C)c(=O)c(C)c32)c1 [Compound 9]	7.67	8.64	8.72	8.55	8.65	8.36	8.28	–	–	–	–	–
CC(=S)Nc1cc(F)cc(-n2c(=O)n(C3CC3)c(=O)c3c(Nc4ccc(I)cc4F)n(C)c(=O)c(C)c32)c1 [Compound 10]	7.83	8.70	8.64	8.74	8.68	8.07	8.19	–	–	–	–	–
CC(=S)Nc1cc(-n2c(=O)n(C3CC3)c(=O)c3c(Nc4ccc(I)cc4F)n(C)c(=O)c(C)c32)ccc1F [Compound 11]	7.66	8.86	8.57	8.62	8.81	8.47	8.51	–	–	–	–	–
Cc1c(=O)n(C)c(Nc2ccc(I)cc2F)c2c(=O)n(C3CC3)c(=O)n(-c3cccc(NC(=S)CN)c3)c12 [Compound 12]	7.64	8.82	8.64	8.51	8.67	8.51	8.44	7.47%	101.08%	128 ± 19 mm^3	better inhibitory effects	toxicity of Trametinib was higher than that of compounds 2, 8 and 12
Cc1c(=O)n(C)c(Nc2ccc(I)cc2F)c2c(=O)n(C3CC3)c(=O)n(-c3cccc(NC(=S)C(=O)O)c3)c12 [Compound 13]	7.50	8.62	8.35	8.38	8.58	8.19	8.28	–	–	–	–	–
CC(=O)Nc1cccc(-n2c(=O)n(C3CC3)c(=O)c3c(Nc4ccc(I)cc4F)n(C)c(=O)c(C)c32)c1 [Trametinib, reference compound]	7.01	–	7.90	7.90	–	7.48	7.49	–	89.80%	305 ± 34 mm^3	–	–
